The text below walks through data of patent US20070059254A1, “Compositions for delivering 5-ht agonists across the oral mucosa and methods of use thereof” (TRANSORAL PHARMACEUTICALS, INC., priority 2003, published 2007).

The nature of data set [1]: Sumatriptan membrane assay (dodecane membrane between donor and acceptor cell). Format: in vitro ADME. The note with it: pH 9.0 to 10.0. The text has this:
Topics Med. Chem., 1:277-351 (2001). This assay uses a lipid-coated membrane to predict lipid mucosal membrane penetration. The membrane apparatus consists of a dodecane membrane sandwiched between a donor and acceptor cell. The lipid-coated membrane is less porous then the mucous membrane of the oral cavity. Thus, the enhancement seen in the membrane assay is very likely to be magnified in vivo. […] The final pH values of these solutions were adjusted using freshly prepared 0.01 M sodium bicarbonate/sodium carbonate buffer. Permeation was measured by determining the concentration of sumatriptan in the acceptor cell, and is expressed as Pe (effective permeability in centimeters per second).

Data set [2] can be described thus: Dissociation constant (pKa) and extent of ionization. Format: physicochemical. The source says: Conversion of the ionized form to the un-ionized form for the 5-HT agonist is related to pH according to the formula: pH=pKa+Log10 (un-ionized concentration/ionized concentration). When the pH is the same as the pKa, equimolar concentrations of the un-ionized form and ionized form exist. […] As noted above, the un-ionized form is lipophilic and, therefore, more capable of passing through mucous membranes such as the oral mucosa than the ionized form, which is lipophobic in nature. Accordingly, increasing the pH of the saliva favors conversion of the ionized form into the un-ionized form for basic compounds such as the 5-HT agonists described herein, and the final pH can be determined by making use of the above formula. […] The final pH values of these solutions were adjusted using freshly prepared 0.01 M sodium bicarbonate/sodium carbonate buffer. Permeation was measured by determining the concentration of sumatriptan in the acceptor cell, and is expressed as Pe (effective permeability in centimeters per second).

As to `CNS(=O)(=O)Cc1ccc2[nH]cc(CCN(C)C)c2c1` [sumatriptan], in data set [1], the “change of effective permeability with pH” value is “increased with pH”. Besides, the un-ionized fraction in data set [2] (at pH 10.5) came out at 90%; in data set [2] (at pH 11.5) it was 100%.
